Legend:
fibroblasts = test: MTT assay, cell proliferation of fibroblasts; type: cell-based
Description: MTT assay [3-(4,5-dimethylthiazol-2-yl)-2,5-diphenyltetrazolium bromide reduction method] was performed on fibroblasts to evaluate cell proliferation of the panduratin derivatives prepared in Examples 2 through 4. Epigallocatechin-3-O-gallate (EGCG), which is known to have skin wrinkle improvement effect, was selected as control substance.

MMP-1 = MMP-1 expression in fibroblasts by Western blotting and RT-PCR; type: cell-based; details: for expression of MMP-1 mRNAs: RT-PCR; for expression of MMP-1 proteins: Western blotting; for MMP-1 inhibition and procollagen promotion activity compared with the control substance EGCG: Western blotting and RT-PCR, covers MMP-1 and procollagen
Description: (§1) MMP-1 inhibition activity and procollagen synthesis promotion effect of the Kaempferia pandurata ethanol extract prepared in Example 1 were measured by Western blotting and reverse transcriptase-polymerase chain reaction (RT-PCR).
(§2) Specifically, proteins were extracted from cultured fibroblasts and quantitated using a protein assay reagent (Bio-Rad Laboratories Inc., Hercules, Calif., USA). For Western blotting, the proteins were heated for 3 minutes and, after cooling, transferred to a nitrocellulose membrane (Amersham International, Little Chalfont, England) through electrophoresis in 10% SDS-PAGE. The membrane was saturated with 5% skim milk in TBST (10 mM Tris, pH 7.5, 100 mM NaCl, 0.1% Tween 20). After blotting for 2 hours using primary antibodies (diluted to 1:1000), followed by washing with TBST, blotting was performed for 2 hours using secondary antibodies (diluted to 1:2000). After washing with TBST for 3 times, the blotted antibodies were analyzed using an ECL detection system (Amersham International, Little Chalfont, England).
(§3) For RT-PCR, RNAs were isolated from fibroblasts using TRIZOL (Invitrogen, USA). The isolated RNAs were quantitated using MMP-1 and procollagen primers and Taq polymerase. Specifically, RT-PCR was carried out using MMP-1 primer for 25 cycles, each cycle consisting of 30 seconds at 94° C., 1 minute at 50° C. and 1 minute at 72° C. And RT-PCR was carried out using procollagen primer for 28 cycles, each cycle consisting of 30 seconds at 94° C., 1 minute at 60° C. and 1 minute at 72° C. Then, after electrophoresis using 1% agarose gel, expression of mRNA for MMP-1 and procollagen was analyzed through ethidium bromide (EtBr) illumination.
(§4) MMP-1 inhibition activity and procollagen synthesis promotion effect of the panduratin derivatives prepared in Examples 2 through 4 were measured by Western blotting and RT-PCR in the same manner as Test Example 2-1.

procollagen = test: Procollagen synthesis in fibroblasts by Western blotting and RT-PCR; type: cell-based; details: for expression of procollagen mRNAs: RT-PCR; for expression of procollagen proteins: Western blotting
Description: as §1, §2, §3, §4

[1] = tested on: extracellular-regulated protein kinase (ERK); test: UV-induced activation (phosphorylation) of ERK in fibroblasts, Western blotting; type: cell-based, Human; details: CCD-986sk fibroblasts, UV 20 mJ/cm^2, 24 h pretreatment
Description: (§5) Human skin fibroblasts (CCD-986sk, ATCC, Manassas, Va., USA) were cultured in DMEM (Gibco, Grand Island, N.Y., USA). The fibroblasts were cultured on a 10 cm Petri dish (SPL, Seoul, Korea) to a concentration of 80% and further cultured for 24 hours in serum-free culture medium. Then, the cells were cultured for 24 hours in serum-free DMEM containing the panduratin A of Example 2. After replacing the culture medium with 5 mL of phosphate-buffered saline (PBS), the cells were exposed to UV (20 mJ/cm^2). Cells that were not exposed to UV were used as negative control group, and cells treated with EGCG were used as positive control group.
(§6) The fibroblasts were lysed in RIPA buffer (Sigma-Aldrich Co., St. Louis, Mo., USA) and proteins were quantitated using a protein assay reagent (Bio-Rad Laboratories Inc., Hercules, Calif., USA). […] After washing with TBST for 3 times, the blotted antibodies were analyzed using an ECL detection system (Amersham International, Little Chalfont, England). The detection level was measured using the software RFLPscan version 2.1.
(§7) Through this procedure, the change of activity of extracellular-regulated protein kinase (ERK), Jun-N-terminal kinase (JNK) and p38 kinase, which belong to the MAPKs, was measured.

[2] = tested on: Jun-N-terminal kinase (JNK); test: UV-induced activation (phosphorylation) of JNK in fibroblasts, Western blotting; type: cell-based, Human; details: CCD-986sk fibroblasts, UV 20 mJ/cm^2, 24 h pretreatment
Description: as §5, §6, §7

p38 kinase = test: UV-induced activation (phosphorylation) of p38 kinase in fibroblasts, Western blotting; type: cell-based, Human; details: CCD-986sk fibroblasts, UV 20 mJ/cm^2, 24 h pretreatment
Description: as §5, §6, §7

AP-1 = test: Electrophoretic mobility shift assay (EMSA), DNA binding activity of AP-1; type: cell-based, Human; details: nuclear proteins of UV-exposed fibroblasts
Description: as §5
Electrophoretic mobility shift assay (EMSA) was performed to measure the DNA binding activity of AP-1. Specifically, the fibroblasts, which were cultured in Test Example 3-1, to which panduratin A was added and which were exposed to UV, were washed with PBS and collected. […] Gel shift assay was carried out using quantitated nuclear proteins according to the manufacturer's instructions (Gel Shift Kit System; Panomics, Fremont, Calif., USA). Then, the detected proteins were analyzed with an ECL detection system (Amersham International, Little Chalfont, England) and the detection level was measured using the software RFLPscan version 2.1.
DNA binding activity of AP-1 was determined through this procedure.

c-Jun = c-Jun activity in UV-exposed fibroblasts, Western blotting; type: cell-based, Human
Description: as §5
(§8) The fibroblasts were lysed in RIPA buffer (Sigma-Aldrich Co., St. Louis, Mo., USA) and proteins were quantitated using a protein assay reagent (Bio-Rad Laboratories Inc., Hercules, Calif., USA). For Western blotting, the proteins were heated for 3 minutes and, after cooling, transferred to a nitrocellulose membrane (Amersham International, Little Chalfont, England) through electrophoresis in 10% SDS-PAGE. The membrane was saturated with 5% skim milk in TBST (10 mM Tris, pH 7.5, 100 mM NaCl, 0.1% Tween 20). […] After washing with TBST for 3 times, the blotted antibodies were analyzed using an ECL detection system (Amersham International, Little Chalfont, England). The detection level was measured using the software RFLPscan version 2.1. […]

c-Fos = c-Fos activity in UV-exposed fibroblasts, Western blotting; type: cell-based, Human
Description: as §5, §8

[3] = tested on: hairless mice (Hos: HR-1); test: Wrinkle improvement in UV-exposed hairless mice, application on skin; type: in vivo
Description: Forty eight 6-week-old female hairless mice (Hos: HR-1) were accustomed for a week and randomly divided into 6 groups, 8 per each. The hairless mice (Hos:HR-1) were exposed to UV for 8 weeks. UV irradiation was carried out 3 times a week, from 1 MED (1 MED=50 mJ/cm^2) to 4 MED, until the end of the test. The 6 test groups were: non UV-treated group, UV-treated group, UV- and Kaempferia pandurata ethanol extract (0.1%, 0.5%)-treated group, and UV- and panduratin A (1 mM, 5 mM)-treated group. Each sample was dissolved in a mixture solvent of ethanol and polyethylene glycol (7:3, v/v) and 50 μL was applied on the back of the mice every day for 8 weeks. For the non UV-treated group and the UV-treated group, 50 μL of a mixture of ethanol and polyethylene glycol (7:3, v/v) was applied.
In order to investigate wrinkle prevention effect, skin replicas were taken using silicone polymer (SILFLO Impression Material, Flexico, England). The image files of the skin replicas were subjected to wrinkle evaluation using the computer image analysis software Skin Visiometer SV 600 (Courage+Khazaha Electronic, Kln, Germany) Rt, Rm, Rz and Ra values (Rt: the distance from the highest and lowest portions on the skin surface, Rm: the maximum Rt value of 5 measurements, Rz: the mean Rt value of 5 measurements, Ra: the arithmetic mean surface roughness) were determined.

[4] = application on skin, 8 weeks, p<0.05

Compound	Proliferation effect (%) (fibroblasts; 0.001 μM)	Proliferation effect (%) (fibroblasts; 0.01 μM)	Proliferation effect (%) (fibroblasts; 0.1 μM)	Proliferation effect (%) (fibroblasts; 1 μM)	Proliferation effect (%) (fibroblasts; 10 μM)	Proliferation effect (%) (fibroblasts; 50 μM)	expression of MMP-1 mRNAs (MMP-1)	expression of MMP-1 proteins (MMP-1)	MMP-1 inhibition and procollagen promotion activity compared with the control substance EGCG (MMP-1)	expression of procollagen mRNAs (procollagen)	expression of procollagen proteins (procollagen)	further results
CC(C)=CC[C@@H]1C(C)=CC[C@@H](c2ccccc2)[C@@H]1C(=O)c1c(O)cc(O)cc1O [4-Hydroxypanduratin A, 4-hydroxypanduratin A]	101	102	109	119	121	128	decrease of MMP-1 proteins and mRNAs in a concentration-dependent manner	decrease of MMP-1 proteins and mRNAs in a concentration-dependent manner	better activity than the control substance EGCG	increased in a concentration-dependent manner	increased in a concentration-dependent manner	
COc1cc(O)cc(O)c1C(=O)[C@@H]1[C@H](CC=C(C)C)C(C)=CC[C@H]1c1ccccc1 [Isopanduratin A, isopanduratin A]	102	102	110	120	124	130	decrease of MMP-1 proteins and mRNAs in a concentration-dependent manner	decrease of MMP-1 proteins and mRNAs in a concentration-dependent manner	better activity than the control substance EGCG	increased in a concentration-dependent manner	increased in a concentration-dependent manner	
Epigallocatechin-3-O-gallate [EGCG, reference compound]	102	104	107	119	120	126						
COc1cc(O)c(C(=O)[C@@H]2[C@H](CC=C(C)C)C(C)=CC[C@H]2c2ccccc2)c(O)c1 [Panduratin A, panduratin A]	103	104	111	120	126	131	decrease of MMP-1 proteins and mRNAs in a concentration-dependent manner	decrease of MMP-1 proteins and mRNAs in a concentration-dependent manner	better activity than the control substance EGCG	increased in a concentration-dependent manner	increased in a concentration-dependent manner	activation of ERK [1]: suppressed in a concentration-dependent manner; activation of JNK [2]: suppressed in a concentration-dependent manner; activation of p38 kinase (p38 kinase): suppressed in a concentration-dependent manner; binding of AP-1 to DNA (AP-1): inhibited binding of AP-1 to DNA in a concentration-dependent manner; c-Jun activity (c-Jun): inhibited c-Jun and c-Fos activity in a concentration-dependent manner; c-Fos activity (c-Fos): inhibited c-Jun and c-Fos activity in a concentration-dependent manner; wrinkling (skin replicas) as compared to the UV-treated group ([3]; 50 μL on the back daily for 8 weeks, extract 0.1% and 0.5%, panduratin A 1 mM and 5 mM): remarkably decreased wrinkling; Ra value (arithmetic mean surface roughness) [3, 4]: significantly decreased; Rm value (maximum Rt value of 5 measurements) [3, 4]: significantly decreased; Rt value (distance from the highest and lowest portions on the skin surface) [3, 4]: significantly decreased; Rz value (mean Rt value of 5 measurements) [3, 4]: significantly decreased
